# Earlier results in patent publication US20080293820A1, “METHODS FOR IMPROVING PHYSICAL FUNCTION IN FIBROMYALGIA” (Cypress Bioscience, Inc., priority 2007, published 2008).
# Test system: patients with FMS
# Conditions: open-label; cited from earlier work
smiles,measurement,value
COc1ccc(C(CN(C)C)C2(O)CCCCC2)cc1 (centres unmarked) [venlafaxine],completing patients with a positive response (50% or greater improvement in two different measurements of overall pain),Six of 11
same,"insomnia requiring adjunctive medical therapy, completing patients",3 of 11
